Tests used:
3T3-L1 cells = assay: Insulin-sensitizing activity in 3T3-L1 preadipocyte model, triglyceride accumulation as indication of cell differentiation; format: cell-based; conditions: for The Percentage of Triglyceride Increased in 3T3-L1 Cells: with IBMX, DEX and insulin, average of 3 pores (rosiglitazone n = 22, mean ± SD); for insulin-sensitizing activity: verbal summary of Table 2
Protocol: The insulin-sensitizing agents can promote the differentiation of pre-adipocytes toward adipocyte. Thus insulin-sensitizing agents could be identified with the insex of the differentiation of pre-adipocytes. Following the methods reported in the literature [Kletzein B F. Mol. Pharm. 1991, 41, 393], the insulin-sensitizing activities of the compounds of formula (I) of the present invention were evaluated in 3T3-L1 preadipocyte model with triglyceride accumulation in cells as the indication of cell differentiation.
The 3T3-L1 cells were incubated in DMEM (Dulbecco's Modified Eagle's Medium) containing 10% NBS (newborn calf serum) and subcultured every 3 days. The cells were transferred to 24-pore plates, and after the pores were filled completely, the cells were treated with IBMX (isobutylmethylxanthine) (0.5 mmol/L), DEX (dexamethasone) (1 μmol/L) and insulin (1.0 μmol/L) for 48 h, meanwhile different amounts of test compounds were added into. The cells were incubated continuously until the end of the experiment. Cells were collected and the contents of triglyceride and protein therein were determined by colorimetry. Enhancements of triglyceride in cells after drug-administrating were calculated.
The positive control group was rosiglitazone, and the solvent control group was a culturing medium containing 0.1% of DMSO. […] Thus, the derivatives of the benzopyran compounds of the present invention can be used to control the blood glucose level in type II diabetes patients and inhibit the occurrence of complications caused by the type II diabetes.

Q: Which “The Percentage of Triglyceride Increased in 3T3-L1 Cells” value (3T3-L1 cells; test compound 0.01 μmol/L) does the source give for `COC(=O)c1cc2ccc(OCCc3ccccc3)cc2oc1=O` [Compound 3, 7-(2-phenyl)ethoxyl-2-oxo-2H-1-benzopyran-3-carboxylic acid methyl ester] here?
A: The value was 4.57%.

Q: What about the “The Percentage of Triglyceride Increased in 3T3-L1 Cells” value (3T3-L1 cells; test compound 0.1 μmol/L) of the same compound?
A: The value was −2.61%.

Q: What about the “The Percentage of Triglyceride Increased in 3T3-L1 Cells” value (3T3-L1 cells; test compound 1 μmol/L) of the same compound?
A: Its value is −5.50%.

Q: And the melting point?
A: The melting point was 100 to 101 °C.

Q: Which “The Percentage of Triglyceride Increased in 3T3-L1 Cells” value (3T3-L1 cells; test compound 0.01 μmol/L) does the source give for `CCc1ccc(CCOc2ccc3cc(C(=O)O)c(=O)oc3c2)nc1` [Compound 8, 7-[2-(5-ethyl-2-pyridine)ethyoxyl]-2-oxo-2H-1-benzopyran-3-carboxylic acid] here?
A: The value was 12.25%.

Q: And the “The Percentage of Triglyceride Increased in 3T3-L1 Cells” value (3T3-L1 cells; test compound 0.1 μmol/L)?
A: Its value is 3.67%.

Q: And the “The Percentage of Triglyceride Increased in 3T3-L1 Cells” value (3T3-L1 cells; test compound 1 μmol/L)?
A: The value was 5.66%.

Q: With `COC(=O)c1cc2ccc(OCCc3nc(-c4ccccc4)oc3C)cc2oc1=O` [Compound 6, 7-[2-(5-methyl-2-phenyl-4-oxazole)ethoxyl]-2-oxo-2H-1-benzopyran-3-carboxylic acid methyl ester] as the compound, how does the “The Percentage of Triglyceride Increased in 3T3-L1 Cells” value (3T3-L1 cells; test compound 0.01 μmol/L) read?
A: The value was 27.04%.

Q: What about the “The Percentage of Triglyceride Increased in 3T3-L1 Cells” value (3T3-L1 cells; test compound 0.1 μmol/L) of the same compound?
A: The value was 67.24%.

Q: And the “The Percentage of Triglyceride Increased in 3T3-L1 Cells” value (3T3-L1 cells; test compound 1 μmol/L)?
A: The value was 52.45%.

Q: And the insulin-sensitizing activity (3T3-L1 cells)?
A: The insulin-sensitizing activity was “stronger insulin-sensitizing activity”.

Q: With `Cc1oc(-c2ccccc2)nc1CCOc1ccc2c(c1)OC(=O)C(C(=O)O)C2` (centres unmarked) [Compound 18, 7-[2-(5-methyl-2-phenyl-4-oxazole)ethoxyl]-3,4-dihydro-2-oxo-4H-1-benzopyran-3-carboxylic acid] as the compound, how does the “The Percentage of Triglyceride Increased in 3T3-L1 Cells” value (3T3-L1 cells; test compound 0.01 μmol/L) read?
A: Its value is 18.65%.

Q: What about the “The Percentage of Triglyceride Increased in 3T3-L1 Cells” value (3T3-L1 cells; test compound 0.1 μmol/L) of the same compound?
A: Its value is 29.28%.

Q: What about the “The Percentage of Triglyceride Increased in 3T3-L1 Cells” value (3T3-L1 cells; test compound 1 μmol/L) of the same compound?
A: Its value is 30.24%.

Q: What about the insulin-sensitizing activity (3T3-L1 cells) of the same compound?
A: Its insulin-sensitizing activity is “stronger insulin-sensitizing activity”.

Q: What does the source list for `CCc1ccc(CCOc2ccc3c(c2)OC(=O)C(C(=O)OC)C3)nc1` (centres unmarked) [Compound 12, 7-[2-(5-ethyl-2-pyridine)ethyoxyl]-3,4-dihydro-2-oxo-4H-1-benzopyran-3-carboxylic acid methyl ester]?
A: The Percentage of Triglyceride Increased in 3T3-L1 Cells (3T3-L1 cells; test compound 0.01 μmol/L): 4.13%; The Percentage of Triglyceride Increased in 3T3-L1 Cells (3T3-L1 cells; test compound 0.1 μmol/L): −2.40%; The Percentage of Triglyceride Increased in 3T3-L1 Cells (3T3-L1 cells; test compound 1 μmol/L): 2.53%

Q: For `O=C(O)c1cc2ccc(OCCn3ccc4ccccc43)cc2oc1=O` [Compound 9, 7-[2-(1-indole)ethoxyl]-2-oxo-2H-1-benzopyran-3-carboxylic acid], which “The Percentage of Triglyceride Increased in 3T3-L1 Cells” value (3T3-L1 cells; test compound 0.01 μmol/L) is on record?
A: Its value is −5.25%.

Q: What about the “The Percentage of Triglyceride Increased in 3T3-L1 Cells” value (3T3-L1 cells; test compound 0.1 μmol/L) of the same compound?
A: The value was −8.42%.

Q: And the “The Percentage of Triglyceride Increased in 3T3-L1 Cells” value (3T3-L1 cells; test compound 1 μmol/L)?
A: Its value is −12.95%.

Q: For `Cc1oc(-c2ccccc2)nc1CCOc1ccc2cc(C(=O)OC(C)(C)C)c(=O)oc2c1` [Compound 17, 7-[2-(5-methyl-2-phenyl-4-oxazole)ethoxyl]-2-oxo-2H-1-benzopyran-3-carboxylic acid tert-butyl ester], which “The Percentage of Triglyceride Increased in 3T3-L1 Cells” value (3T3-L1 cells; test compound 0.01 μmol/L) is on record?
A: The value was 18.33%.

Q: And the “The Percentage of Triglyceride Increased in 3T3-L1 Cells” value (3T3-L1 cells; test compound 0.1 μmol/L)?
A: The value was 28.20%.

Q: What about the “The Percentage of Triglyceride Increased in 3T3-L1 Cells” value (3T3-L1 cells; test compound 1 μmol/L) of the same compound?
A: Its value is 33.01%.

Q: What about the insulin-sensitizing activity (3T3-L1 cells) of the same compound?
A: Its insulin-sensitizing activity is “stronger insulin-sensitizing activity”.

Q: For `O=C(O)c1cc2ccc(OCCc3ccccc3)cc2oc1=O` [Compound 7, 7-(2-phenyl)ethoxyl-2-oxo-2H-1-benzopyran-3-carboxylic acid], which “The Percentage of Triglyceride Increased in 3T3-L1 Cells” value (3T3-L1 cells; test compound 0.01 μmol/L) is on record?
A: Its value is 7.97%.

Q: And the “The Percentage of Triglyceride Increased in 3T3-L1 Cells” value (3T3-L1 cells; test compound 0.1 μmol/L)?
A: The value was −1.10%.

Q: And the “The Percentage of Triglyceride Increased in 3T3-L1 Cells” value (3T3-L1 cells; test compound 1 μmol/L)?
A: The value was −6.29%.

Q: For `COC(=O)C1Cc2ccc(OCc3ccc(C(F)(F)F)cc3)cc2OC1=O` (centres unmarked) [Compound 14, 7-(4-trifluoromethylbenzyloxyl)-3,4-dihydro-2-oxo-4H-1-benzopyran-3-carboxylic acid methyl ester], which “The Percentage of Triglyceride Increased in 3T3-L1 Cells” value (3T3-L1 cells; test compound 0.01 μmol/L) is on record?
A: Its value is 19.33%.

Q: And the “The Percentage of Triglyceride Increased in 3T3-L1 Cells” value (3T3-L1 cells; test compound 0.1 μmol/L)?
A: Its value is −16.81%.

Q: And the “The Percentage of Triglyceride Increased in 3T3-L1 Cells” value (3T3-L1 cells; test compound 1 μmol/L)?
A: The value was −2.69%.

Q: For `COC(=O)C1Cc2ccc(OCCN(C)c3nc4ccccc4o3)cc2OC1=O` (centres unmarked) [Compound 16, 7-[2-[N-methyl-N-(2-benzoxazole)amino]ethoxyl]-3,4-dihydro-2-oxo-4H-1-benzopyran-3-carboxylic acid methyl ester], which “The Percentage of Triglyceride Increased in 3T3-L1 Cells” value (3T3-L1 cells; test compound 0.01 μmol/L) is on record?
A: Its value is 11.01%.

Q: And the “The Percentage of Triglyceride Increased in 3T3-L1 Cells” value (3T3-L1 cells; test compound 0.1 μmol/L)?
A: Its value is 29.32%.

Q: What about the “The Percentage of Triglyceride Increased in 3T3-L1 Cells” value (3T3-L1 cells; test compound 1 μmol/L) of the same compound?
A: The value was 25.09%.

Q: And the melting point?
A: Its melting point is 88 to 90 °C.

Q: Which results are given for `Cc1oc(-c2ccccc2)nc1CCOc1ccc2cc(C(=O)O)c(=O)oc2c1` [Compound 10, 7-[2-(5-methyl-2-phenyl-4-oxazole)ethoxyl]-2-oxo-2H-1-benzopyran-3-carboxylic acid]?
A: The Percentage of Triglyceride Increased in 3T3-L1 Cells (3T3-L1 cells; test compound 0.01 μmol/L): −3.28%; The Percentage of Triglyceride Increased in 3T3-L1 Cells (3T3-L1 cells; test compound 0.1 μmol/L): 26.68%; The Percentage of Triglyceride Increased in 3T3-L1 Cells (3T3-L1 cells; test compound 1 μmol/L): 32.30%

Q: For `COC(=O)c1cc2ccc(OCc3ccccc3)cc2oc1=O` [Compound 1, 7-benzyloxyl-2-oxo-2H-1-benzopyran-3-carboxylic acid methyl ester], which “The Percentage of Triglyceride Increased in 3T3-L1 Cells” value (3T3-L1 cells; test compound 0.01 μmol/L) is on record?
A: Its value is −5.73%.

Q: And the “The Percentage of Triglyceride Increased in 3T3-L1 Cells” value (3T3-L1 cells; test compound 0.1 μmol/L)?
A: Its value is −0.43%.

Q: And the “The Percentage of Triglyceride Increased in 3T3-L1 Cells” value (3T3-L1 cells; test compound 1 μmol/L)?
A: The value was 7.93%.

Q: What about the melting point of the same compound?
A: The melting point was 129 to 130 °C.

Q: For `COC(=O)c1cc2ccc(OCCn3ccc4ccccc43)cc2oc1=O` [Compound 5, 7-[2-(1-indole)ethoxyl]-2-oxo-2H-1-benzopyran-3-carboxylic acid methyl ester], which “The Percentage of Triglyceride Increased in 3T3-L1 Cells” value (3T3-L1 cells; test compound 0.01 μmol/L) is on record?
A: The value was 7.88%.

Q: And the “The Percentage of Triglyceride Increased in 3T3-L1 Cells” value (3T3-L1 cells; test compound 0.1 μmol/L)?
A: Its value is 27.58%.

Q: And the “The Percentage of Triglyceride Increased in 3T3-L1 Cells” value (3T3-L1 cells; test compound 1 μmol/L)?
A: Its value is 34.74%.

Q: With `O=C(O)c1cc2ccc(OCc3ccccc3)cc2oc1=O` [Compound 2, 7-benzyloxyl-2-oxo-2H-1-benzopyran-3-carboxylic acid] as the compound, how does the “The Percentage of Triglyceride Increased in 3T3-L1 Cells” value (3T3-L1 cells; test compound 0.01 μmol/L) read?
A: Its value is 20.86%.

Q: What about the “The Percentage of Triglyceride Increased in 3T3-L1 Cells” value (3T3-L1 cells; test compound 0.1 μmol/L) of the same compound?
A: The value was 18.31%.

Q: What about the “The Percentage of Triglyceride Increased in 3T3-L1 Cells” value (3T3-L1 cells; test compound 1 μmol/L) of the same compound?
A: Its value is 14.63%.

Q: For `COC(=O)C1Cc2ccc(OCCc3ccccc3)cc2OC1=O` (centres unmarked) [Compound 11, 7-(2-phenyl)ethoxyl-3,4-dihydro-2-oxo-4H-1-benzopyran-3-carboxylic acid methyl ester], which “The Percentage of Triglyceride Increased in 3T3-L1 Cells” value (3T3-L1 cells; test compound 0.01 μmol/L) is on record?
A: The value was −9.13%.

Q: And the “The Percentage of Triglyceride Increased in 3T3-L1 Cells” value (3T3-L1 cells; test compound 0.1 μmol/L)?
A: The value was 12.90%.

Q: And the “The Percentage of Triglyceride Increased in 3T3-L1 Cells” value (3T3-L1 cells; test compound 1 μmol/L)?
A: The value was 14.10%.

Q: Which results are given for `CCc1ccc(CCOc2ccc3cc(C(=O)OC)c(=O)oc3c2)nc1` [Compound 4, 7-[2-(5-ethyl-2-pyridine)ethyoxyl]-2-oxo-2H-1-benzopyran-3-carboxylic acid methyl ester]?
A: The Percentage of Triglyceride Increased in 3T3-L1 Cells (3T3-L1 cells; test compound 0.01 μmol/L): 7.26%; The Percentage of Triglyceride Increased in 3T3-L1 Cells (3T3-L1 cells; test compound 0.1 μmol/L): 11.55%; The Percentage of Triglyceride Increased in 3T3-L1 Cells (3T3-L1 cells; test compound 1 μmol/L): 17.71%

Q: Which “The Percentage of Triglyceride Increased in 3T3-L1 Cells” value (3T3-L1 cells; test compound 0.01 μmol/L) does the source give for `COC(=O)C1Cc2ccc(OCCc3nc(-c4ccccc4)oc3C)cc2OC1=O` (centres unmarked) [Compound 13, 7-[2-(5-methyl-2-phenyl-4-oxazole)ethoxyl]-3,4-dihydro-2-oxo-4H-1-benzopyran-3-carboxylic acid methyl ester] here?
A: Its value is 28.33%.

Q: What about the “The Percentage of Triglyceride Increased in 3T3-L1 Cells” value (3T3-L1 cells; test compound 0.1 μmol/L) of the same compound?
A: Its value is 52.92%.

Q: And the “The Percentage of Triglyceride Increased in 3T3-L1 Cells” value (3T3-L1 cells; test compound 1 μmol/L)?
A: Its value is 64.69%.

Q: And the insulin-sensitizing activity (3T3-L1 cells)?
A: Its insulin-sensitizing activity is “stronger insulin-sensitizing activity”.

Q: What does the source list for `COC(=O)c1cc2ccc(OCCN(C)C(=O)OC(C)(C)C)cc2oc1=O` [Compound 15, 7-[2-(N-tert-butoxycarbonyl-N-methylamino)ethoxyl]-2-oxo-2H-1-benzopyran-3-carboxylic acid methyl ester]?
A: The Percentage of Triglyceride Increased in 3T3-L1 Cells (3T3-L1 cells; test compound 0.01 μmol/L): 26.38%; The Percentage of Triglyceride Increased in 3T3-L1 Cells (3T3-L1 cells; test compound 0.1 μmol/L): 26.73%; The Percentage of Triglyceride Increased in 3T3-L1 Cells (3T3-L1 cells; test compound 1 μmol/L): 44.70%; melting point: 128 to 129 °C

Reference: patent publication US7456205B2, “Benzopyran compounds, process for preparing the same and their use” (Shanghai Institute of Materia Medica, Chinese Academy of …, priority 2003, dated 2008)
